Experimental data: patent publication US9833497B2, “Human originated EGF domain proteins and use of the same” (CHENGDU SOURCEBIO LIMITED-LIABILITY COMPANY, priority 2013, dated 2017)

Tests used:
Format in all cases: cell-based
Citrobacter diversus = test: MIC against Gram-negative bacteria: Citrobacter diversus
Method in brief: (§1)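 Purified recombinant human EGF domain proteins are tested by broth dilution in LB against a 5×10^5 CFU/mL inoculum, with two-fold serial dilutions run in triplicate. Plates are incubated at 37° C with shaking, and the MIC is read as the lowest protein concentration without growth.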

Klebsiella pneumonia = test: MIC against Gram-negative bacteria: Klebsiella pneumonia
Method in brief: as §1

Enterobacter cloacae = test: MIC against Gram-negative bacteria: Enterobacter cloacae
Method in brief: as §1

Aeromonas hydrophila = test: MIC against Gram-negative bacteria: Aeromonas hydrophila
Method in brief: as §1

Proteus vulgaris = test: MIC against Gram-negative bacteria: Proteus vulgaris
Method in brief: as §1

E. coli BL21 = test: MIC against Gram-negative bacteria: E. coli BL21
Method in brief: as §1

Proteus mirabilis = test: MIC against Gram-negative bacteria: Proteus mirabilis
Method in brief: as §1

E. coli DH5α = test: Antibacterial activity: MIC and growth curve against E. coli DH5α in 96-well plate; details: minimal inhibitory concentration against E. coli DH5α; 96-well plate, 5×10^5 CFU/mL, 37° C., judged after 8 h
Method in brief: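 MIC taken as lowest protein level with no bacterial growth, tracked by A600 every 30 min during 37 °C, 175 rpm culture. Two-fold protein series 50-12.5 μg/mL final, triplicate wells, against 5×10^5 CFU/mL of LB-washed mid-log cells.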

Serratia marcescens = test: MIC against Gram-negative bacteria: Serratia marcescens
Method in brief: as §1

Moraxella catarrhalis = test: MIC against Gram-negative bacteria: Moraxella catarrhalis
Method in brief: as §1

Pseudomonas aeruginosa = test: MIC against Gram-negative bacteria: Pseudomonas aeruginosa
Method in brief: as §1

[1] = 96-well plate, 5×10^5 CFU/mL, 37° C., 10 h
[2] = Citrobacter diversus, 96-well plate, 5×10^5 CFU/mL, 37° C., 10 h
[3] = Klebsiella pneumonia, 96-well plate, 5×10^5 CFU/mL, 37° C., 10 h
[4] = Enterobacter cloacae, 96-well plate, 5×10^5 CFU/mL, 37° C., 10 h
[5] = Aeromonas hydrophila, 96-well plate, 5×10^5 CFU/mL, 37° C., 10 h
[6] = Proteus vulgaris, 96-well plate, 5×10^5 CFU/mL, 37° C., 10 h
[7] = E. coli BL21, 96-well plate, 5×10^5 CFU/mL, 37° C., 10 h
[8] = Proteus mirabilis, 96-well plate, 5×10^5 CFU/mL, 37° C., 10 h
[9] = Serratia marcescens, 96-well plate, 5×10^5 CFU/mL, 37° C., 10 h
[10] = Moraxella catarrhalis, 96-well plate, 5×10^5 CFU/mL, 37° C., 10 h
[11] = Pseudomonas aeruginosa, 96-well plate, 5×10^5 CFU/mL, 37° C., 10 h
[12] = C. diversus, 10 h cultivation at 37° C., 5×10^5 CFU/mL
[13] = K. pneumonia, 10 h cultivation at 37° C., 5×10^5 CFU/mL
[14] = E. cloacae, 10 h cultivation at 37° C., 5×10^5 CFU/mL
[15] = A. hydrophila, 10 h cultivation at 37° C., 5×10^5 CFU/mL
[16] = P. vulgaris, 10 h cultivation at 37° C., 5×10^5 CFU/mL
[17] = E. coli BL21, 10 h cultivation at 37° C., 5×10^5 CFU/mL
[18] = P. mirabilis, 10 h cultivation at 37° C., 5×10^5 CFU/mL
[19] = S. marcescens, 10 h cultivation at 37° C., 5×10^5 CFU/mL
[20] = M. catarrhalis, 10 h cultivation at 37° C., 5×10^5 CFU/mL
[21] = P. aeruginosa, 10 h cultivation at 37° C., 5×10^5 CFU/mL

PRT541 (CSCDLRGTLGGVAECQPGTGQCFCKPHVCGQACASCKDGFFGLDQADYFGCRS; listed as Homo sapiens)
MIC against C. diversus (Citrobacter diversus; [1]): 12.5 µg/mL | MIC against K. pneumonia (Klebsiella pneumonia; [1]): 50 µg/mL | MIC against E. cloacae (Enterobacter cloacae; [1]): 12.5 µg/mL | MIC against A. hydrophila (Aeromonas hydrophila; [1]): 50 µg/mL | MIC against P. vulgaris (Proteus vulgaris; [1]): 25 µg/mL | MIC against E. coli BL21 (E. coli BL21; [1]): 50 µg/mL | MIC against P. mirabilis (Proteus mirabilis; [1]): 12.5 µg/mL | MIC (E. coli DH5α): 12.5 µg/mL | MIC against S. marcescens (Serratia marcescens; [1]): 50 µg/mL | MIC against M. catarrhalis (Moraxella catarrhalis; [1]): 50 µg/mL | MIC against P. aeruginosa (Pseudomonas aeruginosa; [1]): 100 µg/mL

PRT615 (CDCHALGSTNGQCDIRTGQCECQPGITGQHCERCEVNHFGFGPEGCKP; listed as Homo sapiens)
MIC C. diversus (Citrobacter diversus; [1]): 50 µg/mL | MIC K. pneumonia (Klebsiella pneumonia; [1]): 25 µg/mL | MIC E. cloacae (Enterobacter cloacae; [1]): 12.5 µg/mL | MIC A. hydrophila (Aeromonas hydrophila; [1]): 25 µg/mL | MIC P. vulgaris (Proteus vulgaris; [1]): 25 µg/mL | MIC E. coli BL21 (E. coli BL21; [1]): 25 µg/mL | MIC P. mirabilis (Proteus mirabilis; [1]): 12.5 µg/mL | MIC (E. coli DH5α): 12.5 µg/mL | MIC S. marcescens (Serratia marcescens; [1]): 50 µg/mL | MIC M. catarrhalis (Moraxella catarrhalis; [1]): 25 µg/mL | MIC P. aeruginosa (Pseudomonas aeruginosa; [1]): 12.5 µg/mL

PRT43 (CKCNGHASLCNTNTGKCFCTTKGVKGDECQLCEVENRYQGNPLRGTCYY; listed as Homo sapiens)
MIC (μg/mL) C. diversus (Citrobacter diversus; [2]): 12.5 µg/mL | MIC (μg/mL) K. pneumonia (Klebsiella pneumonia; [3]): 25 µg/mL | MIC (μg/mL) E. cloacae (Enterobacter cloacae; [4]): 12.5 µg/mL | MIC (μg/mL) A. hydrophila (Aeromonas hydrophila; [5]): 25 µg/mL | MIC (μg/mL) P. vulgaris (Proteus vulgaris; [6]): 25 µg/mL | MIC (μg/mL) E. coli BL21 (E. coli BL21; [7]): 25 µg/mL | MIC (μg/mL) P. mirabilis (Proteus mirabilis; [8]): 12.5 µg/mL | MIC (E. coli DH5α): 12.5 µg/mL | MIC (μg/mL) S. marcescens (Serratia marcescens; [9]): 12.5 µg/mL | MIC (μg/mL) M. catarrhalis (Moraxella catarrhalis; [10]): 25 µg/mL | MIC (μg/mL) P. aeruginosa (Pseudomonas aeruginosa; [11]): 12.5 µg/mL

PRT155 (APGPCAAQPCRNGGVCTSRPEPDPQHPAPAGEPGYSCTCPAGISGANCQ; listed as Homo sapiens)
MIC (μg/mL) C. diversus (Citrobacter diversus; [12]): 12.5 µg/mL | MIC (μg/mL) K. pneumonia (Klebsiella pneumonia; [13]): 25 µg/mL | MIC (μg/mL) E. cloacae (Enterobacter cloacae; [14]): 12.5 µg/mL | MIC (μg/mL) A. hydrophila (Aeromonas hydrophila; [15]): 25 µg/mL | MIC (μg/mL) P. vulgaris (Proteus vulgaris; [16]): 25 µg/mL | MIC (μg/mL) E. coli BL21 (E. coli BL21; [17]): 25 µg/mL | MIC (μg/mL) P. mirabilis (Proteus mirabilis; [18]): 12.5 µg/mL | MIC (E. coli DH5α): 12.5 µg/mL | MIC (μg/mL) S. marcescens (Serratia marcescens; [19]): 12.5 µg/mL | MIC (μg/mL) M. catarrhalis (Moraxella catarrhalis; [20]): 25 µg/mL | MIC (μg/mL) P. aeruginosa (Pseudomonas aeruginosa; [21]): 12.5 µg/mL

PRT268 (SFKCRCDSGFALDSEERNCTDIDE; listed as Homo sapiens)
MIC (μg/mL) C. diversus (Citrobacter diversus; [12]): 12.5 µg/mL | MIC (μg/mL) K. pneumonia (Klebsiella pneumonia; [13]): 25 µg/mL | MIC (μg/mL) E. cloacae (Enterobacter cloacae; [14]): 50 µg/mL | MIC (μg/mL) A. hydrophila (Aeromonas hydrophila; [15]): 25 µg/mL | MIC (μg/mL) P. vulgaris (Proteus vulgaris; [16]): 12.5 µg/mL | MIC (μg/mL) E. coli BL21 (E. coli BL21; [17]): 25 µg/mL | MIC (μg/mL) P. mirabilis (Proteus mirabilis; [18]): 50 µg/mL | MIC (E. coli DH5α): 12.5 µg/mL | MIC (μg/mL) S. marcescens (Serratia marcescens; [19]): 12.5 µg/mL | MIC (μg/mL) M. catarrhalis (Moraxella catarrhalis; [20]): 25 µg/mL | MIC (μg/mL) P. aeruginosa (Pseudomonas aeruginosa; [21]): 12.5 µg/mL

PRT936 (VLAPCSPNPCENAAVCKESPNFESYTCLCAPGWQGQRCT; listed as Homo sapiens)
MIC (Citrobacter diversus; C. diversus, 10 h cultivation at 37° C.): 50 µg/mL | MIC (Klebsiella pneumonia; K. pneumonia, 10 h cultivation at 37° C.): 50 µg/mL | MIC (Enterobacter cloacae; E. cloacae, 10 h cultivation at 37° C.): 12.5 µg/mL | MIC (Aeromonas hydrophila; A. hydrophila, 10 h cultivation at 37° C.): 25 µg/mL | MIC (Proteus vulgaris; P. vulgaris, 10 h cultivation at 37° C.): 12.5 µg/mL | MIC (E. coli BL21; E. coli BL21, 10 h cultivation at 37° C.): 12.5 µg/mL | MIC (Proteus mirabilis; P. mirabilis, 10 h cultivation at 37° C.): 50 µg/mL | MIC (E. coli DH5α): 25 µg/mL | MIC (Serratia marcescens; S. marcescens, 10 h cultivation at 37° C.): 50 µg/mL | MIC (Moraxella catarrhalis; M. catarrhalis, 10 h cultivation at 37° C.): 12.5 µg/mL | MIC (Pseudomonas aeruginosa; P. aeruginosa, 10 h cultivation at 37° C.): 25 µg/mL

PRT1288 (ADGPCHGHKCVHGQCVPLDALSYSCQCQDGYSGALCN; listed as Homo sapiens)
MIC against C. diversus (Citrobacter diversus; [2]): 12.5 µg/mL | MIC against K. pneumonia (Klebsiella pneumonia; [3]): 25 µg/mL | MIC against E. cloacae (Enterobacter cloacae; [4]): 50 µg/mL | MIC against A. hydrophila (Aeromonas hydrophila; [5]): 12.5 µg/mL | MIC against P. vulgaris (Proteus vulgaris; [6]): 25 µg/mL | MIC against E. coli BL21 (E. coli BL21; [7]): 25 µg/mL | MIC against P. mirabilis (Proteus mirabilis; [8]): 12.5 µg/mL | MIC (E. coli DH5α): 50 µg/mL | MIC against S. marcescens (Serratia marcescens; [9]): 12.5 µg/mL | MIC against M. catarrhalis (Moraxella catarrhalis; [10]): 50 µg/mL | MIC against P. aeruginosa (Pseudomonas aeruginosa; [11]): 12.5 µg/mL
